Reference: a melting point compilation (Tetko et al.; mined from patent text by program, amines drawn as free bases though some values may be those of a salt)

Row | SMILES | melting point [°C]
1 | C[C@@H]1Cc2ccsc2[C@H](c2ccccc2)N1CCNS(=O)(=O)c1ccc(N)cc1 (relative stereo) | 184 to 186
2 | O=c1c(Cl)c(Cl)cnn1C1OCCCC1Cl (stereo unspecified) | 109 to 110
3 | O=C1C(c2ccc(O)cc2)=C(c2ccccc2)c2ccc(O)cc21 | 100 to 110
4 | COC(=O)C1CCC2C3CCC4CC(O)C(OC)CC4(C)C3C(=O)CC12C (stereo unspecified) | 170 to 182
5 | c1ccc(C(c2ccccc2)(c2ccns2)n2ccnc2)cc1 | 164 to 167
6 | COC(=O)N1Cc2cc(OC)ccc2C(Cc2c(Cl)cncc2Cl)=N1 | 184 to 186
7 | Cc1c(-c2ccncc2)[nH]c(-c2ccncc2)c1C(=O)OC(C)(C)C | 265 to 267
8 | CCNC(=O)Nc1nccc(-c2ccncc2)n1 | 204 to 207
9 | CC(C)(N)c1ccc(-c2nc(Nc3cccc(C(F)(F)F)c3)ncc2C#N)cc1 | 192
10 | COC(=O)Cn1cnc(N2CCc3ccccc3CC2)c(C#N)c1=O | 156 to 160
11 | CN(CCC#N)C(=O)c1nc(Cl)c(Cl)[nH]1 | 184
12 | COc1cccc(C(O)(CC2CCNCC2)c2cccc(OC)c2)c1 | 111 to 113
13 | CCCCCCCNC(=O)N(C)c1ccc(C)c(-c2ccc(C=CC(=O)O)cc2)c1 | 159
14 | COc1ccc(C(=O)c2[nH]c3cc(Cl)ccc3c2NC(C)=O)cc1 | 137 to 139
15 | CC(C)NCC(O)COc1cccnc1[N+](=O)[O-] (stereo unspecified) | 99 to 101
16 | COCOCc1oc2c(OC)cccc2c1CCSC(c1ccccc1)c1ccccc1 | 110
17 | CCNC(=O)NC1=C(C(=O)OC)CCNC1=O | 103
18 | CCCCCCCCCCCCCCCCCC(=O)c1ccc(O)c(C(=O)O)c1 | 128 to 132
19 | CCC(CO)(CO)Nc1ncc2cc(Oc3ccc(F)cc3F)ccc2n1 | 110 to 113
20 | NS(=O)(=O)OCCN1CCCC1=O | 110 to 112
21 | COC(=O)c1ccccc1C1NC(=S)C(C)(C(C)C)N1 (stereo unspecified) | 115 to 121
22 | CC(C)(C)c1cc(N2C(=O)c3ccccc3C2=O)cc(C(C)(C)C)c1O | 196 to 201
23 | O=C(O)c1cccc(Oc2ncc(C(F)(F)F)cc2Cl)c1 | 158
24 | CCCCCC(C)C(C)c1cc(O)c2c3c(c(=O)oc2c1)SCCC3 (stereo unspecified) | 131 to 133
25 | Clc1ccc(O[C@@H]2CCNC[C@H]2c2ccccc2)cc1 (relative stereo) | 102 to 103

Row | SMILES | melting point [°C]
26 | COc1nc(OC)c(C(C)C)c(C(=O)c2cc(C)cc(C=CC#N)c2)n1 | 144 to 145
27 | CCCC(=O)c1cnc2c(O)cccc2c1Nc1ccc(F)cc1C | 121 to 122
28 | COCOc1cc(Cl)c(Br)cc1C(=O)c1ncccc1OCOC | 70 to 72
29 | Cc1cn(CC(=O)N(CCNC(=O)OC(C)(C)C)CC(=O)Oc2c(F)c(F)c(F)c(F)c2F)c(=O)[nH]c1=O | 174 to 176
30 | Cc1cscc1-c1cccc2c1nnn2-c1ccnc(NC2CCN(S(C)(=O)=O)CC2)n1 | 244 to 245
31 | CN1CCN(c2ccc(Nc3ncc4cc5ccccc5n4n3)cc2)CC1 | 217 to 222
32 | OC(c1ncc[nH]1)(c1ccc(Cl)cc1Cl)c1ccc(Cl)cc1Cl | 193
33 | Cc1cc(-c2cc(COS(C)(=O)=O)c(=O)n(Cc3ccccc3Cl)n2)ccc1F | 142 to 143
34 | COc1ccc2cc(CN(C)C(=O)c3cn(C)c4ccccc34)ccc2c1Br | 168 to 169
35 | Cc1ccc(S(=O)(=O)n2cc(I)nc2C)cc1 | 112 to 114
36 | COc1ccccc1NC(=O)Nc1nc(Oc2ccc3ccccc3c2)nc(N(CCC(=O)O)Cc2ccc(C)cc2)n1 | 202 to 205
37 | FC(F)(F)Oc1ccc(-c2ncc(Br)cn2)cc1 | 107 to 108
38 | Cc1cc([N+](=O)[O-])c(C(=O)OC(C)C)cc1Oc1ccc(OC(F)(F)F)cc1 | 47 to 49
39 | CCn1nc(C)c2nc(C)nc(NCCO)c21 | 166 to 168
40 | CC1(C)SC(c2ccncc2)NC1C(=O)O (stereo unspecified) | 149 to 151
41 | CCN(CC)S(=O)(=O)c1ccc(N2N=C(C)C(=CNc3ccccc3OC)C2=O)cc1 | 191
42 | CNC(=NC#N)NCCSCc1csc(NC(N)=NC(=O)c2ccccc2)n1 | 179 to 181
43 | CCC(Cl)C(=O)NCCSc1nc(C(C)(C)C)n[nH]1 (stereo unspecified) | 68 to 70
44 | CCOc1cc2c(cc1OCC)C(CC)C(C)=NN=C2c1ccc(OC)c(OC)c1 (stereo unspecified) | 91 to 93
45 | CCN1CCN(C(=O)Cc2ccc(I)cc2)CC1 | 81 to 83
46 | CC(=O)NC1=CC(C)(C)Oc2ccc(C#N)cc21 | 146 to 147
47 | NCc1nnc2n1-c1ccc(Cl)cc1C(c1ccccc1F)=CC2 | 188 to 190
48 | CC(C)(C)c1cc(-c2nn(Cc3ccc([N+](=O)[O-])cc3)c3ncccc23)cc(C(C)(C)C)c1O | 143 to 145
49 | N#Cc1ccc(Oc2ccc(Cl)c(Cl)c2)c(C=O)c1 | 122 to 126
50 | c1ccc(CN2CCN(Cc3n[nH]c4c3CCc3ccccc3-4)CC2)cc1 | 158 to 160

Second part, the molecule after the results:

Row | melting point [°C] | SMILES
51 | 145 to 147 | COC1=CC(C)=NN(NC(=O)N=NS(=O)(=O)C2SCCN2OCC=CCl)N1 (stereo unspecified)
52 | 150 to 152 | O=C(O)Cc1ccc2c(c1)[nH]c1ccccc12
53 | 95 to 96.5 | CC12CC3C(=O)OC(C1O)C3(C)O2 (stereo unspecified)
54 | 113 to 114 | CCON(Cc1ccc(F)cc1)C(=O)C1=C(O)C(=O)N(C)C1
55 | 225 | Cc1cc(C(O)=S)cc(N)c1Cl
56 | 68 to 69 | COc1ccc(NC(C)C)c(S)c1
57 | 41 | CCCCCCCCCCCCCCCC1CCCC(=O)C1 (stereo unspecified)
58 | 245 to 246 | COc1ccccc1C(=O)c1sc(Nc2cccnc2)nc1N
59 | 102 to 104 | CNC(=O)Cc1ccc(CC(=O)O)cc1
60 | 215 to 216 | CN(C)c1ccc(NC(=O)C(C#N)C(=O)c2nn(-c3ccccc3)c3c2CSc2ccccc2-3)cc1 (stereo unspecified)
61 | 153 to 155 | CN(C)S(=O)(=O)N1CCN(S(=O)(=O)c2ccc(Oc3ccccc3)cc2)[C@@H](C(=O)NO)C1
62 | 181 to 182 | Cc1ccccc1NC(=NC#N)NC(NC(=O)Cc1ccc(Cl)cc1)C(C)(C)C (stereo unspecified)
63 | 111 to 112 | COc1ccc(CCN)cc1OCCC(c1ccccc1)(c1ccccc1)c1ccccc1
64 | 228 | N=C(NC(=O)c1ccccc1)N1CCc2[nH]cnc2C1
65 | 189 to 191 | CNc1nccc(-c2c(-c3ccc(F)cc3)ccn2C2CCNCC2)n1
66 | > 250 | Cn1ncc(C(=O)N2CCC2)c1C(=O)Nc1ccn2nc(-c3ccncc3)nc2c1
67 | 101 to 102 | CCOC(=O)C1(C(=O)OCC)CCC2(CC1)c1cc(OC)c(OC)cc1CCN2C(=O)OCc1ccccc1
68 | 146 to 148 | COc1ccc(C2(COc3cccc4cc(NS(=O)(=O)C(F)(F)F)ccc34)N=CNO2)cc1 (stereo unspecified)
69 | 178 to 180 | FC(F)C(F)(F)Sc1nc(-c2ccc(Cl)c(Cl)c2)c(-c2cccs2)[nH]1
70 | 220 to 221 | Cc1c(C)c2c(c(C)c1NC(=O)CC(C)(C)C)C(c1ccc(C(C)C)c(O)c1)CO2 (stereo unspecified)
71 | 97 to 99 | C=Cc1ncn(-c2c(Cl)cc(C(F)(F)F)cc2Cl)n1
72 | 216 | CC(=O)OCC(=O)C1(OC(C)=O)CCC2C3CC(C)C4=CC(=O)C=CC4(C)C3C(O)CC21C (stereo unspecified)
73 | 86 | c1ccc(-n2c(-c3ccc(OCCCN4CCCCC4)cc3)nc3ccccc32)cc1
74 | 84 to 90 | CCc1nc2c(C)cc(C)nc2n1Cc1ccc(C(C(C)C)C(C)C(=O)O)cc1 (stereo unspecified)
75 | 65 to 67 | CCOC(=O)CC(NC(=O)C(C)C)C(=O)c1ccco1 (stereo unspecified)
76 | 143 | COC(=O)c1ccn2ccnc2c1

Row | melting point [°C] | SMILES
77 | 290 | O=C(O)c1cccc2c1[nH]c1c(Cl)c(Cl)ccc12
78 | 144 to 146 | CCc1nc(-c2cccc(C)c2)c(-c2ccnc(N)c2)s1
79 | 31 to 33 | C#CCNC(=O)C(F)(F)F
80 | 177 to 179 | O=c1[nH]c2c(F)cc([N+](=O)[O-])cc2o1
81 | 60 to 63 | CN(C)CCCCCCc1nn(CC(N)=O)c(-c2ccccc2)c1-c1ccccc1
82 | 117 to 119 | C[C@H]1[C@H](O)[C@H](O)C(S(=O)(=O)c2ccccc2)=C[C@H](C)[C@H]1O[Si](C)(C)C(C)(C)C
83 | 123 to 124 | CN(C)CCOC(=O)C1CCc2c([nH]c3ccc(Cl)cc23)C1 (stereo unspecified)
84 | 84 to 85 | COc1cc2c(cn1)OCC21C(=O)N(CC2CCOCC2)c2ccccc21 (stereo unspecified)
85 | 157 to 160 | CN1C(C)(C)CC(CNc2nc(NO)nc(NCC3CC(C)(C)N(C)C(C)(C)C3)n2)CC1(C)C
86 | 116 to 119 | CC(C)N(CCC1(c2ccccc2Cl)CC(=O)NC1=O)C(C)C (stereo unspecified)
87 | 225 to 226 | COc1ccc(NS(=O)(=O)c2cc3cc(Cl)ccc3oc2=O)cc1O
88 | 168 | COc1ccc(CCNC(=O)CNc2cc(Cl)ccc2C(N)=O)cc1OC
89 | 231 | CC(C)(C)OC(=O)c1ccc(NC2CCc3cc4nc(COC(=O)C(C)(C)C)[nH]c(=O)c4cc32)cc1 (racemic)
90 | 278 to 280 | CC1(c2cc(-c3cccc(C=C4SC(N5CCCC5)=NC4=O)c3)ccc2O)CCCCC1
91 | 200 | Cc1cccc(-c2sc(N)nc2-c2ccnc(-c3ccc(CN4CCCC4)cc3)c2)n1
92 | 45 to 46 | CCOC(=O)c1cnn(-c2ccccc2[N+](=O)[O-])c1C(=O)OCC
93 | 195 to 196 | CCNc1nc(-c2ccc(F)cc2C)c2ccc(=O)n(-c3c(F)cccc3F)c2n1
94 | 162 to 165 | Cc1ncc(CN2CCN(CCc3ccccc3)CC2)c(N)n1
95 | 65 | CCOC(=O)C(O)=CC=C(SC)C(=O)c1ccc(N2CCCCC2)cc1
96 | 70 to 71 | Cc1ccc2cccc(OCC(=O)c3ccccc3)c2n1
97 | 235 to 236 | O=C1CCC(c2ccc(N=C3NCCN3)cc2)=NN1
98 | 94 to 96 | CC(C)(C)OC(=O)c1cccc(O)c1
99 | 146 to 147 | NC(=O)N(O)Cc1ccc(OCCc2csc(-c3ccc(C(F)(F)F)cc3)n2)cc1
100 | 130 to 132 | O=C(O)CC1CCCCC1Oc1ccc(C(=O)c2ccc(Cl)cc2)cc1 (stereo unspecified)
101 | 112 to 113 | CC(C)CC(COc1ccc(-c2ccc(C#N)cc2)cc1)N(O)C=O (stereo unspecified)
